This assay deals with T1, TAF3 P881E (GST-tagged PHD) (Mus musculus, UniProt Q5HZG4, P881E).
T1 construct: Mus musculus Taf3-PHD domain (residues 857–924); made in house; host or cells: E. coli BL21(DE3)
T1 sequence (Q5HZG4 857-924 P881E): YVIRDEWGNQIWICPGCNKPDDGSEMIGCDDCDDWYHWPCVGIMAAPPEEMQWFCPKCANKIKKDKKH
In words: ITC of GST-tagged Taf3-PHD P881E. It counts as binding. The text has this:
The coding sequences of Mus musculus Taf3-PHD domain (residues 857–924) and Homosapiens PHF2 (1–66), PHF8 (37–102), and BPTF(2) (2865–2921) were cloned into the pGEX2T-derived vector, pRP265NB, for bacterial expression of GST-tagged proteins. Note that the PHD fingers of M. musculus Taf3 and H. sapiens TAF3 differ in a single amino acid. A901 in mouse corresponds to T899 in human. Here, amino acid numbering corresponds to mouse Taf3 isoform 1 with UniProt ID: Q5HZG4, accessible at https://www.uniprot.org/uniprotkb/Q5HZG4/entry. Single or double mutations were introduced by mutagenesis polymerase chain reaction and validated by Sanger sequencing. A single colony of freshly transformed BL21(DE3) Escherichia coli bacteria with the corresponding construct was grown in Luria broth (LB) medium supplemented with 50 μg/ml ampicillin until an OD600 of 0.7. […]
ITC experiments were performed at 20°C with a MicroCal VP-ITC microcalorimeter (Malvern) by sequential injection of 10 μl at 300 μM histone peptide during 20 s into the sample cell containing 30 or 15 μM of GST-Taf3 (wild type or mutant) or GST-BPTF, GST-PHF2, and GST-PHF8 PHDs in ITC buffer (100 mM NaCl, 20 mM Tris–HCl, pH 7.5). […] ITC data were subsequently analysed and fitted with the one-site binding model in the MicroCal ITC Origin Analysis software 7.0 (Table 1, Figs 3B and 5A, Supplementary Table S3, and Supplementary Fig. S10). […]

Where two headings read alike, the source gives them in different places.

Two compounds from article PMC12238850, “Molecular determinants for recognition of serotonylated chromatin” (Nucleic Acids Research, 2025) can be followed below.

On to `C[C@H](N)C(=O)N[C@@H](CCCNC(=N)N)C(=O)N[C@H](C(=O)N[C@@H](CCCC[N+](C)(C)C)C(=O)N[C@@H](CCC(=O)NCCc1c[nH]c2ccc(O)cc12)C(=O)N[C@H](C(=O)N[C@@H](C)C(=O)N[C@@H](CCCNC(=N)N)C(=O)N[C@@H](CCCCN)C(=O)N[C@@H](CO)C(=O)N[C@H](C(=O)NCC(N)=O)[C@@H](C)O)[C@@H](C)O)[C@@H](C)O` [H3K4me3Q5ser], for which the Kd turned out to be 136 ± 4 nM. In the case of `C[C@H](N)C(=O)N[C@@H](CCCNC(=N)N)C(=O)N[C@H](C(=O)N[C@@H](CCCC[N+](C)(C)C)C(=O)N[C@@H](CCC(N)=O)C(=O)N[C@H](C(=O)N[C@@H](C)C(=O)N[C@@H](CCCNC(=N)N)C(=O)N[C@@H](CCCCN)C(=O)N[C@@H](CO)C(=O)N[C@H](C(=O)NCC(N)=O)[C@@H](C)O)[C@@H](C)O)[C@@H](C)O` [H3K4me3], the Kd (ITC, 20°C, 100 mM NaCl, 20 mM Tris–HCl, pH 7.5, one-site model, ± = standard error of fit, read-out: K D) was found to be 148 ± 4 nM.
